The subject of the test is OVCAR-5 complex spheroid (HUVEC/MSC), viability % T/C. In words: Anticancer human tumor OVCAR-5 cell line growth inhibition [Asc].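 On all read-outs here: spheroids exposed to agents for 7 days before readout.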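 On viability, T/C: 100% = DMSO vehicle-treated wells.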 As to conditions: for viability, T/C: stronger effect = lower value; for IC50: curve of compound. In outline: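 Concentration series start at each agent's clinical Cmax, or at 10 microM when none is established, and drop in half-log steps; agents are applied alone or together to complex spheroids built with HUVEC and hMSC.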

Values joined by “and” are separate entries in the source; they are usually repeats but may differ in a detail not shown here. Equal entries are not always repeated.

As usually defined, the viability, T/C is the result in the treated group divided by that in the control group, in per cent. Broadly, the IC50 is the concentration at which inhibition is half-maximal.

`C#Cc1c(F)ccc2cc(O)cc(-c3ncc4c(N5CC6CCC(C5)N6)nc(OCC56CCCN5CC(F)C6)nc4c3F)c12` (stereo not drawn): the IC50 was 7.56 µM and 6.9 µM and 7.16 µM. The viability, T/C (compound 0.0316 µM) was 114% and 104% and 101%. In addition, for the setting “compound 0.1 µM”, the viability, T/C is 112% and 100% and 106%. Besides, the viability, T/C (compound 0.316 µM) was 92.9% and 93.9% and 84.2%. Moreover, the viability, T/C (compound 1 µM) was 80.5% and 88.2% and 96.8%. Besides, for the setting “compound 3.16 µM”, the viability, T/C is 78.7% and 72.7% and 75%. For the setting “compound 10 µM”, the viability, T/C was 40.5% and 39.1% and 39.3%.

In the case of `O=C(c1cc(Cc2n[nH]c(=O)c3ccccc23)ccc1F)N1CCN(C(=O)C2CC2)CC1`, the concentration for half-maximal inhibition (IC50) was greater than 10 µM. Further, the viability, T/C (compound 0.0316 µM) is 106% and 108% and 101%. For the same molecule, for the setting “compound 0.1 µM”, the viability, T/C is 98.9% and 98.3% and 106%. The viability, T/C (compound 0.316 µM) was 92.3% and 94.9% and 95%. The viability, T/C (compound 1 µM) was 96% and 91.9% and 93.1%. Besides, under “compound 3.16 µM”, the viability, T/C is 93.5% and 97.9% and 94.9%. Besides, the viability, T/C (compound 10 µM) is 76.2% and 81% and 83.6%.

On to `CCN1CCN(Cc2ccc(Nc3ncc(F)c(-c4cc(F)c5nc(C)n(C(C)C)c5c4)n3)nc2)CC1`, for which the IC50 was greater than 1 µM. Under “compound 0.00316 µM”, the viability, T/C was 96.2% and 105% and 97.1%. The viability, T/C (compound 0.01 µM) was 89% and 87.6% and 79.2%. For the same molecule, the viability, T/C (compound 0.0316 µM) was 70.1% and 70.8% and 77.2%. Further, the viability, T/C (compound 0.1 µM) is 66.8% and 66.6% and 69.3%. Also, the viability, T/C (compound 0.316 µM) is 71.2% and 64.5% and 68.4%. Also, the viability, T/C (compound 1 µM) was 60.4% and 55.5% and 60.6%.

Regarding `Cc1nc(N2CCC3(CC2)COC(C)C3N)c(CO)nc1Sc1ccnc(N)c1Cl` (stereo not drawn), the 50% inhibitory concentration (IC50) was greater than 3 µM. Besides, for the setting “compound 0.00949 µM”, the viability, T/C was 109% and 97.2% and 107%. Also, the viability, T/C (compound 0.03 µM) is 99.2% and 97.7% and 99.4%. Further, the viability, T/C (compound 0.0949 µM) is 84.9% and 85.5% and 83.2%. Further, the viability, T/C (compound 0.3 µM) was 84.3% and 72.2% and 87.1%. The viability, T/C (compound 0.949 µM) was 77.6% and 64.7% and 77.7%. For the same molecule, the viability, T/C (compound 3 µM) is 62% and 60.2% and 56.3%.

Values taken from PubChem BioAssay AID1963436 (Molecular Pharmacology Branch, DTP, NCI, 2024).
